What all share (format): cell-based
The test system of experiment [1] is MCF-7 breast tumor cells. Description: Microscope observation of treated MCF-7 cells. As to the method:
A cell viability test was performed on MCF-7 (Michigan Cancer Foundation-7) breast tumor cells […] (ER(+) cells).
The MCF-7 cells are in a cell culture medium identical to that of Example 5 and are seeded in 12-well plates at 50 000 cells per well. 24 hours after seeding, the cells are treated with vehicle solvate comprising water and ethanol with a 1% o ratio of ethanol, 3β-fluoro-5α-hydroxy-6β-[2-(1H-imidazol-4-yl)ethylamino]cholestane, and 5α-hydroxy-6β-[2-(1H-imidazol-4-yl)ethylamino]cholestan-3β-ol at 1, 2.5 or 5 μM. The cells are observed under an inverted microscope and photographed via the microscope camera at 24 h and 48 h. The morphological changes in the cells at 1 μM are very small. […] The effects are more marked at 2.5 μM and 5 μM with an increase in the number of dead cells. […] After 24 h of treatment with 3β-fluoro-5α-hydroxy-6β-[2-(1H-imidazol-4-yl)ethylamino]-cholestane at 5 μM, 99% of the observed cells are supernatant, reflecting cell death, and 1% of the cells are adherent and show white vesicles. […] The cytostatic effect is illustrated by an inhibition of cell proliferation.

For experiment [2], the target named is T1, Cholesterol Epoxide Hydrolase (ChEH) (Homo sapiens, UniProt Q15125+Q9UBM7).
T1 construct: endogenous in cells; host or cells: MCF-7
As to the kind of experiment: Cholesterol Epoxide Hydrolase (ChEH) activity in MCF-7 cells, [14C]5,6α-EC metabolism by TLC. Particulars: 1 μM, 24 h, [14C]5,6α-EC 0.6 μM. The text has this: The compounds 5,6α-epoxycholesterol (5,6α-EC) and 5,6p-epoxycholesterol (5,6p-EC) are oxysterols involved in the anticancer pharmacology of tamoxifen, a widely used antitumor drug. Both are metabolized to cholestane-3β,5α,6β-triol (CT) by the enzyme cholesterol-5,6-epoxide hydrolase (ChEH), and CT is metabolized by the enzyme HSD11B2 (11β-hydroxysteroid dehydrogenase 2) to 6-oxocholestane-3β,5α-diol (OCDO), a tumor-promoting oncosterone.
MCF-7 cells are in a cell culture medium identical to that of Example 5 and are seeded in 6-well plates at 150 000 cells per well with three wells per treatment condition. […] Tamoxifen is used as a positive control for 3α-fluoro-5α-hydroxy-6β-[2-(1H-imidazol-4-yl)ethylamino]cholestane and 5α-hydroxy-6β-[2-(1H-imidazol-4-yl)ethylamino]cholestan-3β-ol (1 μM for all molecules).
After 24 hours of treatment, the media are collected and lipid extracts are prepared from the cell pellets by extraction with 100 μL of chloroform, 400 μL of methanol, and 300 μL of water.
The lipid extracts are analyzed by thin layer chromatography (TLC) using ethyl acetate (EtOAc) as eluent. The analysis is performed with a plate reader and then by autoradiography.

Experiment [3] relates to Neuro2a (murine neuroblastoma) cells. Description: Cytotoxicity on Neuro2a cells, trypan blue test. Particulars: 48 h. As to the method:
For this experiment, a cell culture medium was prepared. The culture medium consisted of Dulbecco's Modified Eagle Medium (DMEM, sold by Westburg under the reference LO BE12-604F), comprising 4.5 g/L glucose with L-glutamine, to which 10% fetal calf serum (FCS) is added. Neuro2a (murine neuroblastoma) cells are introduced into this culture medium.
24-well dishes were seeded with 10 000 Neuro2a cells per well. After 72 hours (h) of culture under normal conditions, i.e., in an incubator at 37° C. with 5% CO2, the Neuro2a cells were treated for 48 h with 3β-fluoro-5α-hydroxy-6β-[2-(1H-imidazol-4-yl)ethylamino]-cholestane and 5α-hydroxy-6β-[2-(1H-imidazol-4-yl)ethylamino]cholestan-3β-ol at 100 nM, 1 μM and 10 μM. A control (CTL) is also performed using the previously described protocol without treatment with […]-5α-hydroxy-6β-[2-(1H-imidazol-4-yl)ethylamino]-cholestane and 5α-hydroxy-6β-[2-(1H-imidazol-4-yl)ethylamino]cholestan-3β-ol. The cell survival was quantified by means of a trypan blue test with automatic counting using the Biorad TC20 machine (TC20™ Automated Cell Counter). The trypan blue test is based on the integrity of cell membranes, which is disrupted in the dead cells. Trypan blue stains dead cells blue. The Biorad TC20 cell counter counts the proportion of blue and non-blue cells, and reports the percentage of cells. The results are represented in FIG. 1.

Structures are written as SMILES.

T1 sequence (Q15125 whole entry): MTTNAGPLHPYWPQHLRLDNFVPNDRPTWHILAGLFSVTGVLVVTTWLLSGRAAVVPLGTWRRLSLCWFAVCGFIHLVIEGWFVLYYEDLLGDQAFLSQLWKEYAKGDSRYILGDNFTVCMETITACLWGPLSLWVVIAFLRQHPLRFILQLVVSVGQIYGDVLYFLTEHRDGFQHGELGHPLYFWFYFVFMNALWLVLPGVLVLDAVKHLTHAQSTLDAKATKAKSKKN
T1 sequence (Q9UBM7 whole entry): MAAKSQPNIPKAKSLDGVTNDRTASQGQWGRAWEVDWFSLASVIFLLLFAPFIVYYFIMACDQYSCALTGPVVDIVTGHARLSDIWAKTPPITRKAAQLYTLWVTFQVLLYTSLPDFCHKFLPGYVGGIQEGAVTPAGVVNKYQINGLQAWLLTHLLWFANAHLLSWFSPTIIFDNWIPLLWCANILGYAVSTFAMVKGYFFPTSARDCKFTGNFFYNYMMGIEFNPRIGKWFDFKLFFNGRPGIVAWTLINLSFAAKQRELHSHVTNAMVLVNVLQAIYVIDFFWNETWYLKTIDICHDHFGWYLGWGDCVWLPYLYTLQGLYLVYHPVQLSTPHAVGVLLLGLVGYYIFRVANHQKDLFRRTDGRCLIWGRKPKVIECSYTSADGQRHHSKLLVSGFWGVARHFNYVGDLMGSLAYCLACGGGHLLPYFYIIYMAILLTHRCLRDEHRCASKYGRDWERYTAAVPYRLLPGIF

With `CC(C)CCC[C@@H](C)[C@H]1CC[C@H]2[C@@H]3C[C@@H](NCCc4c[nH]cn4)[C@@]4(O)C[C@@H](O)CC[C@]4(C)[C@H]3CC[C@]12C` [DX101, 5α-hydroxy-6β-[2-(1H-imidazol-4-yl)ethylamino]cholestan-3β-ol, reference compound], the “morphological changes in the cells” value in experiment [1] (1 μM, 24 h) is recorded as “Only a few white vesicles”.

Regarding `CC(C)CCC[C@@H](C)[C@H]1CC[C@H]2[C@@H]3C[C@@H](NCCc4c[nH]cn4)[C@@]4(O)C[C@@H](F)CC[C@]4(C)[C@H]3CC[C@]12C` [DX111, 3β-fluoro-5α-hydroxy-6β-[2-(1H-imidazol-4-yl)ethylamino]cholestane], the “inhibition of ChEH activity” value in experiment [2] was “almost total inhibition”. Further, the “morphological changes in the cells” value in experiment [1] (1 μM, 24 h) is “Only a few white vesicles”; in experiment [1] (2.5 μM, 24 h), “numerous white vesicles and detached cells”; in experiment [1] (5 μM, 48 h), “all the cells are supernatant”. Also, the “cytostatic effect compared with 24 h” value in experiment [1] (2.5 μM, 48 h) is listed as “stronger cytostatic effect”. In addition, in experiment [1] (5 μM, 24 h), the “cells that are adherent and show white vesicles” value was found to be 1%. Moreover, the “observed cells that are supernatant (cell death)” value in experiment [1] (5 μM, 24 h) is on record as 99%. For the same compound, the “effect compared with 5α-hydroxy-6β-[2-(1H-imidazol-4-yl)ethylamino]cholestan-3β-ol” value in experiment [1] (24 h of observation) is on record as “greater or equal effect”; in experiment [1] (48 h of observation) it was “similar”. Moreover, the “percentage of cell survival relative to the control group” value was “unchanged” in experiment [3] (100 nM), 75% in experiment [3] (1 μM) and 30% in experiment [3] (10 μM).

For the origin of these results see patent publication US20230391817A1, “5ALPHA-HYDROXY-6BETA-[2-(1-H-IMIDAZOL-4-YL)-ETHYLAMINO]-CHOLESTAN-3BETA-OL ANALOGUES AND PHARMACEUTICAL COMPOSITIONS COMPRISING SAME FOR USE IN THE TREATMENT OF CANCER” (priority 2020, published 2023).
